Experimental data from publication PMC5908134, “Saccharomyces cerevisiae as a platform for assessing sphingolipid lipid kinase inhibitors” (PLoS ONE, 2018).
“Also recorded” adds a separate entry of the source.

What was measured:
[1] = molecular target: T1, human SphK1 (Homo sapiens, UniProt Q9NYA1); assay: yeast growth rescue assay, strain CBY169 expressing human SphK1; format: cell-based; conditions: strain CBY169 expressing human SphK1
T1 construct: constructed by sub-cloning DNA encoding the indicated translational open reading frames into the pYES2-FLAG-URA expression vector; expressed in transfected cells; host or cells: Saccharomyces cerevisiae CBY169 or KYA1, plasmid pGAL-HsSPHK1
From the text: (§1) The plasmids pGAL-HsSPHK1, pGAL-HsSPHK2, pGAL-MmSphk1, pGAL-MmSphk1L277M, pGAL-MmSphk2, pGAL-HsCERK and pGAL-SK2_MOD used in this study were constructed by sub-cloning DNA encoding the indicated translational open reading frames into the pYES2-FLAG-URA expression vector (provided by Dr. Cungui Mao). […] Excepting human and mouse SphK2, the DNA sequences are synthetic (from GeneWiz LLC (South Plainfield, NJ)) and were optimized for expression in S. cerevisiae.
(§2) Yeast harboring plasmids were selected and maintained on synthetic complete media lacking uracil (SC-URA) with 2% glucose as the fermentable carbon source. After overnight growth at 30°C in this media, the cultures were diluted 1:100 into SC-URA media supplemented with 2% galactose and various concentrations of test inhibitor. After a further 24–48 hours incubation at 30°C, the extent of growth was assessed by measuring absorbance at 600 nm. […] Tubes were incubated in a rotating drum while plates were agitated using a plate mixer. A600 for 96-well plate cultures was determined using a Molecular Devices SpectraMax M5 plate reader. Test compounds were dissolved in DMSO at 40–50 mM and diluted into water containing 0.1% fatty acid free bovine serum albumin. In all cases, the DMSO concentration in the assay was less than 2% (v/v).

[2] = molecular target: T2, human SphK2 (Homo sapiens, UniProt Q9NRA0); assay: yeast growth rescue assay, strain CBY169 expressing human SphK2; format: cell-based
T2 construct: full length (wild type hSK2); expressed in transfected cells; host or cells: Saccharomyces cerevisiae CBY169 or KYA1, plasmid pGAL-HsSPHK2
T2 sequence (Q9NRA0 1-618 isoform Q9NRA0-2): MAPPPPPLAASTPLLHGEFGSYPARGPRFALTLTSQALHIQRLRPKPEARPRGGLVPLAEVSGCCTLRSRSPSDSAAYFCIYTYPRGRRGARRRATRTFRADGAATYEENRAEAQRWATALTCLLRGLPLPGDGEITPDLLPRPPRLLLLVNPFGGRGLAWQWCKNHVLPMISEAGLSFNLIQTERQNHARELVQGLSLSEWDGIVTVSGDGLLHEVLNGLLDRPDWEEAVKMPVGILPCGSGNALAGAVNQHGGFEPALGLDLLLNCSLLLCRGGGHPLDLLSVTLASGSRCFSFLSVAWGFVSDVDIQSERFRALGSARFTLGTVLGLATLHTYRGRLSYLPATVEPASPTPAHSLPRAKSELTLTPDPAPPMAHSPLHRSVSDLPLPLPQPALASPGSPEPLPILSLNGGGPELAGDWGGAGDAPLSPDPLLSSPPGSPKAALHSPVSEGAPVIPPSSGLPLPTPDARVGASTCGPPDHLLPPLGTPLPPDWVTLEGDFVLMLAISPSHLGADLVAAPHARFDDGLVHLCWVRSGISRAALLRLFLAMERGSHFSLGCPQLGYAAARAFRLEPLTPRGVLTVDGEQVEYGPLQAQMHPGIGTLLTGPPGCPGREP
From the text: as §1

[3] = molecular target: T1, human SphK1; assay: yeast growth rescue assay, strain KYA1 (PDR5 deleted) expressing human SphK1; format: cell-based
From the text: as §1, §2

[4] = molecular target: T2, human SphK2; assay: yeast growth rescue assay, strain KYA1 (PDR5 deleted) expressing human SphK2; format: cell-based; conditions: strain KYA1 expressing human SphK2
From the text: The yeast strains used in this study include JS1256 (MATa his3Δ1 leu2Δ0 met15Δ0 ura3Δ0) and CBY169 (MATα leu2-3,112 ura3-52 his4 trp1 rme1 dpl1Δ::TRP1 lcb3Δ::LEU2 lcb4Δ::kanMX lcb5Δ::kanMX) (the latter provided by Kyle Cunningham). The CBY169 strain was modified further by replacement of the PDR5 gene with a selectable marker (confers resistance to clonat) to generate strain KYA1 (MATα leu2-3,112 ura3-52 his4 trp1 rme1 dpl1Δ::TRP1 lcb3Δ::LEU2 lcb4Δ::kanMX lcb5Δ::kanMX pdr5Δ::natMX).
The plasmids pGAL-HsSPHK1, pGAL-HsSPHK2, pGAL-MmSphk1, pGAL-MmSphk1L277M, pGAL-MmSphk2, pGAL-HsCERK and pGAL-SK2_MOD used in this study were constructed by sub-cloning DNA encoding the indicated translational open reading frames into the pYES2-FLAG-URA expression vector (provided by Dr. Cungui Mao). The encoded proteins all have an amino terminal FLAG epitope tag ([…]) and their expression is under the control of the GAL1,10 promoter. Excepting human and mouse SphK2, the DNA sequences are synthetic (from GeneWiz LLC (South Plainfield, NJ)) and were optimized for expression in S. cerevisiae.

[5] = system: yeast strain CBY169; assay: toxicity for yeast (growth of strains without lipid kinase expression)
Protocol: as §2
The salient limitations of the yeast assay are those of any cell-based assay. Namely, the assay reports EC50 values rather than Km, Vmax or kcat values of inhibitors, test compounds must not be markedly cytotoxic at the concentrations tested and compounds must accumulate to some extent in the yeast. Cytotoxicity is readily discerned by testing compounds for an effect on growth of strains without lipid kinase expression.

[6] = molecular target: T3, mouse SphK2 (Mus musculus, UniProt Q9JIA7); assay: yeast growth rescue assay, mouse SphK2 (CBY169 and KYA1 strains); format: cell-based; conditions: both the CBY169 and KYA1 strains
T3 sequence (Q9JIA7 1-617): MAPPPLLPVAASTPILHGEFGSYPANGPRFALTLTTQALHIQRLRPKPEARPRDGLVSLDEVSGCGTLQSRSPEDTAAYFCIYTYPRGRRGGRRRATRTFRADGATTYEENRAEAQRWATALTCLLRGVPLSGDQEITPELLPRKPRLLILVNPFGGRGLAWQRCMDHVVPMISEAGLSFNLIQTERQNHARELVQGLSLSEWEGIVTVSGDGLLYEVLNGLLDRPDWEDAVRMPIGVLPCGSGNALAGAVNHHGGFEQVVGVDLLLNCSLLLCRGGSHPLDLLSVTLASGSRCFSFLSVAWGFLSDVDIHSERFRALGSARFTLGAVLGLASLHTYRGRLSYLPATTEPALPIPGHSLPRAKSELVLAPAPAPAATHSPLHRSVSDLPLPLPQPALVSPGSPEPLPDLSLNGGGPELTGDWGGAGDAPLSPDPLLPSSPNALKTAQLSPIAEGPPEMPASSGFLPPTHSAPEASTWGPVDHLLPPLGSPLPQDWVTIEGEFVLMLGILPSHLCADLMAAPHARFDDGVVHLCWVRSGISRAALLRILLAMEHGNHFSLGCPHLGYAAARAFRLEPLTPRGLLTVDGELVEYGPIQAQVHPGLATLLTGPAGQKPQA
From the text: as §1, §2

T1 sequence (Q9NYA1 whole entry): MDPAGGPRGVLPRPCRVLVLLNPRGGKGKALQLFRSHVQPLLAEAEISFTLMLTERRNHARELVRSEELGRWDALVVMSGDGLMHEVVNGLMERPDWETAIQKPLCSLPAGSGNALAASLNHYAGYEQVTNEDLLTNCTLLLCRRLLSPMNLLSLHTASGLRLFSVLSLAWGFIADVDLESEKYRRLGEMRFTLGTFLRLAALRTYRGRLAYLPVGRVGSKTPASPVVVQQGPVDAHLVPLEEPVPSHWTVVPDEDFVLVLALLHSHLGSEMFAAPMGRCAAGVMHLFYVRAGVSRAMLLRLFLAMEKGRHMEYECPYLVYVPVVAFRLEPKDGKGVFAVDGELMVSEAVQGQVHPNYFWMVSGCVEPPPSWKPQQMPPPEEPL

O=C(NCc1ccncc1)C12CC3CC(C1)CC(c1ccc(Cl)cc1)(C3)C2 [ABC294640]
rescue of growth in galactose media [1]: failed to rescue growth
rescue of growth [2]: failed to rescue growth; also recorded: failure to detect activity
rescue of growth [3]: failed to rescue growth
rescue of growth [4]: failed to rescue growth; also recorded: failure to detect activity
rescue of growth ([4]; concentrations up to 100 μM): failed to rescue growth
cytotoxicity for yeast [5]: not cytotoxic
activity (rescue of growth) [6]: failure to detect activity
